Results reported in ChEMBL document CHEMBL5226281, “Synergistic effects of curcumin and its analogs with other bioactive compounds: A comprehensive review” (Eur J Med Chem, 2021).

How the values were obtained:
HSC-2 = test: Synergistic cytotoxicity against human HSC-2 cells; format: functional, cell-based
MCF7 = test: Synergistic antiproliferative activity against human MCF7 cells assessed as inhibition of cell growth; format: functional; parameters: scale not given: the % may be the effect or the level left
DLD-1 = test: Synergistic antiproliferative activity against human DLD-1 cells assessed as inhibition of cell growth; format: functional, cell-based
HCT-116 = test: Synergistic antiproliferative activity against human HCT-116 cells assessed as inhibition of cell growth; format: functional, cell-based
[1] = Induction of apoptosis in rat AY-27 cells at 10 uM by Annexin V-PE and 7AAD staining based flow cytometry; format: functional
[2] = Antiproliferative activity against rat AY-27 cells assessed as inhibition of cell growth incubated for 3 hrs by MTT assay; format: functional; parameters: scale not given: the % may be the effect or the level left
Y79 = test: Antiproliferative activity against human Y79 cells assessed as inhibition of cell growth incubated for 48 hrs by MTT assay; format: functional, cell-based; details: Y79, 48 h
[3] = Antiproliferative activity against human WERI-Rb-1 cells assessed as inhibition of cell growth incubated for 48 hrs by MTT assay; format: functional, cell-based; details: WERI-Rb-1, 48 h
[4] = target: Mitogen-activated protein kinase 8 (Homo sapiens) (UniProt P45983); test: Activation of JNK in human CMT12 cells; format: cell-based
Sequence of Mitogen-activated protein kinase 8 (Homo sapiens) (P45983 whole entry): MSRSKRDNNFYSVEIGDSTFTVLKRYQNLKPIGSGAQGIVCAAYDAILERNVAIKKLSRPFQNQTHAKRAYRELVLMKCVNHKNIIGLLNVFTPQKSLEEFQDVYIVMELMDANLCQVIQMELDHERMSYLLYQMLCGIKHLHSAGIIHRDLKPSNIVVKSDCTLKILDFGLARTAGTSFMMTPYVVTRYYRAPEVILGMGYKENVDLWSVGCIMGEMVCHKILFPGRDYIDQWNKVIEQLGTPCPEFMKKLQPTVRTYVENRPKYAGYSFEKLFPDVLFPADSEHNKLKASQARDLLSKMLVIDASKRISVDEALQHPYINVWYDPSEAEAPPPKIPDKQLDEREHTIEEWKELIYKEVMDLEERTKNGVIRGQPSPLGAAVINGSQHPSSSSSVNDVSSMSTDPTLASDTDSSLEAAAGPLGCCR

Plasmodium falciparum = test: Antimalarial activity against Plasmodium falciparum infected in mouse assessed as survival at 0.5 mg/kg, po measured after 40 days relative to control; format: functional; details: time 40 day

Compound	IC50 (HSC-2)	Activity (MCF7)	IC50 (DLD-1)	IC50 (HCT-116)	Activity [1]	Activity [2]	IC50 (Y79)	IC50 [3]	Activity [4]	Activity (Plasmodium falciparum)
Oc1ccc(/C=C/c2cc(O)cc(O)c2)cc1 [RESVERATROL]	3.1 µM									
COc1cc(/C=C/C(=O)CC(=O)/C=C/c2ccc(O)c(OC)c2)ccc1O [CURCUMIN]	3.1 µM	65.92%	10 µM	10 µM	36%	85%	30 µM	25 µM	30%	
C[C@@H]1CC[C@H]2[C@@H](C)C(=O)O[C@@H]3O[C@@]4(C)CC[C@@H]1[C@]32OO4 [ARTEMISININ]										100%
